Where a SMILES comes first, the peptide text is derived from it. Where no end group is shown, it is not given here.
Experiments:
[1] = molecular target: T1, LCAT (purified from human plasma) (Homo sapiens, UniProt P04180); assay: LCAT activation assay; type: biochemical; conditions: for LCAT activation as compared with native ApoA-I: native ApoA-I = 100% activation
T1 construct: from tissue; host or cells: human plasma
T1 sequence (P04180 25-440): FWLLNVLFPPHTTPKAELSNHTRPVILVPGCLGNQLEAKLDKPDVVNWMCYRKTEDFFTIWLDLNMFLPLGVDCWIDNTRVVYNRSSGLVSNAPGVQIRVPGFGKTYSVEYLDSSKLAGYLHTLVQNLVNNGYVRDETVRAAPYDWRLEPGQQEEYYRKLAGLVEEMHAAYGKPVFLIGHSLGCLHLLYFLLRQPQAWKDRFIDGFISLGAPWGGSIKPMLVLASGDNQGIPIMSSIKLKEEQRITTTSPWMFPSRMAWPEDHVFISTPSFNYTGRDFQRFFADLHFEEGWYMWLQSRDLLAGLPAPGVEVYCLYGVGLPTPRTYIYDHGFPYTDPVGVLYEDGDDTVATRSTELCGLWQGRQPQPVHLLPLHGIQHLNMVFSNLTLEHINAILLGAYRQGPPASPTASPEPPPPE
Procedure: Examples of peptides which may be encoded by the nucleotides of the present invention are listed in Table VIII which also includes peptides which are chemically synthesized. […] All of the peptides listed were analyzed in vitro for their ability to activate LCAT. In the LCAT assay, substrate vesicles (small unilamellar vesicles or “SUVs”) composed of egg phophatidylcholine or 1-Palmitoyl-2-oleyl-phosphatidylcholine (POPC) and radiolabelled cholesterol are preincubated with equivalent masses either of peptide or ApoA-I (isolated from human plasma). The reaction is initiated by addition of LCAT (purified from human plasma). Native ApoA-I, which was used as positive control, represents 100% activation activity. “Specific activity” (i.e., units of activity (LCAT activation)/unit of mass) of the peptides can be calculated as the concentration of peptide that achieves maximum LCAT activation. For example, a series of concentrations of the peptide (e.g., a limiting dilution) can be assayed to determine the “specific activity” for the peptide—the concentration which achieves maximal LCAT activation (i.e., percentage conversion of cholesterol to cholesterol ester) at a specific timepoint in the assay (e.g., 1 hr.). When plotting percentage conversion of cholesterol at, e.g., 1 hr., against the concentration of peptide used, the “specific activity” can be identified as the concentration of peptide that achieves a plateau on the plottal curve.
The vesicles used in the LCAT assay are SUVs composed of egg phosphatidylcholine (EPC) or 1-palmitoyl-2-oleyl-phosphatidylcholine (POPC) and cholesterol with a molar ratio of 20:1. To prepare a vesicle stock solution sufficient for 40 assays, 7.7 mg EPC (or 7.6 mg POPC; 10 μmol), 78 μg (0.2 μmol) 4-^14C-cholesterol, 116 μg cholesterol (0.3 μmol) are dissolved in 5 ml xylene and lyophilized. Thereafter 4 ml of assay buffer is added to the dry powder and sonicated under nitrogen atmosphere at 4° C. Sonication conditions: Branson 250 sonicator, 10 mm tip, 6.5 minutes; Assay buffer: 10 mM Tris, 0.14M NaCl, 1 mM EDTA, pH 7.4). […]

[2] = system: EPC/Chol (20:1) small unilamellar vesicles; assay: Lipid binding by fluorescence spectroscopy
Procedure: The lipid binding properties of the peptides described in Section 6, supra, were tested by fluorescence measurements with labeled peptides, in the present case Tryptophane (Trp or W) or Naphtylalanine (Nal). The fluorescence spectra were recorded on a Fluoromax from Spex (Jobin-Yvon) equipped with a Xenon lamp of 150W, two monochromators (excitation and emission), a photomultiplier R-928 for detection sensitive in the red up to 850 nm and a thermoelectric magnetic stirred cell holder. Quartz Suprasil cuvettes were used for measurements in the micromolar concentration range. A device of variable slits (from 0.4 to 5 nm) allows modulation of the incident and emitted intensities according to the concentration of peptide used. The reported values are in general the average of between 2 to 4 spectra. The peptide concentration is determined by absorption spectrometry on a Philips PU 8800 using the absorption band of the Trp (∈280 nm=5,550 M^−1 cm^−1 in Tris buffer) or the Nal (∈224 nm=92,770 M^−1 cm^−1 in methanol).
Fluorescence spectra of the peptides were recorded between 290 nm and 450 nm in Tris-HCl buffer (20 mM, pH=7.5), in the presence and absence of lipidic vesicles. The small unilamellar vesicles were formed after rehydration in buffer of the lyophilized phospholipids, dispersion and tip sonification under a N2 stream. The lipids used were either Egg PC/Chol. (20:1) or POPC/Chol. (20:1). The spectra were recorded at a peptide concentration of 2 μM and at a temperature of 37° C. The fluorescence reference standard in the case of Trp was N-acetyltryptophanylamide (NATA).
Lipid binding studies were done through progressive lipidic vesicle addition to the peptide in solution at 2 μM (slits:5 nm in excitation and 1.5 nm in emission). Dilution effects were taken into account for the fluorescence intensity determination. The lipid concentrations were varied from 10 to 600 μM and the molar ratio of lipid to peptide (Ri) was varied from 5 to 300. The wavelength of excitation was set at 280 nm for both Trp and Nal.
The data were directly recorded and treated by an IBM-PC linked to the spectrofluorimeter through the DM3000F software from Spex. The spectra were corrected by substraction of the solvent contribution and by application of a coefficient given by the constructor taking into account the variation of the photomultiplier response versus the wavelength.
The fluorescence spectra of the peptides were characterized by the wavelength at their maximum of fluorescence emission and by their quantum yield compared to NATA in the case of peptides labeled with a tryptophane. The process of binding to lipids was analyzed by calculating the shift of the wavelength at the maximum of fluorescence emission, (λmax), and the variation of the relative fluorescence intensity of emission versus the lipid concentration. The relative fluorescence intensity is defined as the following ratio: (I-I0)λmax/I0λmax. I and I0 are both measured at the (λmax) corresponding to the initial free state of the peptide, i.e., without lipids. I is the intensity at a defined lipid to peptide ratio and I0 is the same parameter measured in absence of lipids. The absence of these variations is relevant of the absence of interactions of the peptides with the lipids.

[3] = HDL cholesterol in rabbits after injection of phospholipid/peptide complex; type: in vivo, Male New Zealand White rabbits; conditions: for Increase in HDL Cholesterol (%): 8 mg/kg i.v. as peptide/DPPC complexes
Procedure: Small discoidal particles consisting of phospholipid (DPPC) and peptide 146 (SEQ ID NO:146) were prepared following the cholate dialysis method. The phospholipid was dissolved in chloroform and dried under a stream of nitrogen. The peptide was dissolved in buffer (saline) at a concentration of 1-2 mg/ml. The lipid film was redissolved in buffer containing cholate (43° C.) and the peptide solution was added at a 3-1 phospholipid/peptide ratio. The mixture was incubated overnight at 43° C. and then dialyzed at 43° C. (24 hr.), room temperature (24 hr.) and 4° C. (24 hr.), with three changes of buffer (large volumes) at temperature point. The complexes were filter sterilized (0.22μ) for injection and storage at 4° C. The particles were separated on a gel filtration column (Superose 6 HR). The position of the peak containing the particles was identified by measuring the phospholipid concentration in each fraction. From the elution volume, the Stokes radius can was determined. The concentration of peptide in the complex was determined by determining the phenylalanine content (by HPLC) following a 16 hr. acid hydrolysis. Male New Zealand White rabbits (2.5-3 kg) were injected intravenously with a dose of phospholipid/peptide complex (8 mg/kg bodyweight peptide 146 (SEQ ID NO:146) or 10 mg/kg bodyweight ApoA-I, expressed as peptide or protein content) in a single bolus injection not exceeding 10-15 ml. The animals were slightly sedated before the manipulations. Blood samples (collected on EDTA) were taken before and 5, 15, 30, 60, 240 and 1440 minutes after injection. The hematocrit (Hct) was determined for each sample. Samples were aliquoted and stored at −20° C. before analysis. Plasma Lipids. The total plasma cholesterol, plasma triglycerides and plasma phospholipids were determined enzymatically using commercially available assays according to the manufacturer's protocols (Boehringer Mannheim, Mannheim, Germany and Biomérieux, 69280, Marcy-l'étoile, France). Lipoprotein Profiles. The plasma lipoprotein profiles of the fractions obtained after the separation of the plasma into its lipoprotein fractions were determined by spinning in a sucrose density gradient. The fractions were collected and in each individual fraction the phospholipid and cholesterol content was measured enzymatically.

Molecule: peptide 18AM4: peptide ApoA-I mimic described in the literature (Corinjn et al., 1993) (EWLEAFYKKVLEKLKELF)
- LCAT activation as compared with native ApoA-I [1]: less than 4%

Molecule: CC(=O)N1CCC[C@H]1C(=O)N[C@H](C(=O)N[C@@H](CC(C)C)C(=O)N[C@@H](CC(=O)O)C(=O)N[C@@H](CCC(=O)O)C(=O)N[C@@H](Cc1ccccc1)C(=O)N[C@@H](CCCN=C(N)N)C(=O)N[C@@H](CCC(=O)O)C(=O)N[C@@H](CCCCN)C(=O)N[C@@H](CC(C)C)C(=O)N[C@@H](CC(N)=O)C(=O)N[C@@H](CCC(=O)O)C(=O)N[C@@H](CCC(=O)O)C(=O)N[C@@H](CC(C)C)C(=O)N[C@@H](CCC(=O)O)C(=O)N[C@@H](C)C(=O)N[C@@H](CC(C)C)C(=O)N[C@@H](CCCCN)C(=O)N[C@@H](CCC(N)=O)C(=O)N[C@@H](CCCCN)C(=O)N[C@@H](CC(C)C)C(=O)N[C@@H](CCCCN)C(N)=O)C(C)C [consensus 22-mer] (Ac-PVLDEFREKLNEELEALKQKLK-NH2)
- LCAT activation as compared with native ApoA-I [1]: 10%

Molecule: PVLELFERLLEDLQKKLK [peptide 229]
- ACTIVITY (%) LCAT ([1]; LCAT activation as compared with native human ApoA-I): 0%

Molecule: CC(=O)N[C@@H](Cc1c[nH]c2ccccc12)C(N)=O [NATA, N-acetyltryptophanylamide, reference compound]
- λmax ([2]; Ri 0, in buffer, 2 μM): 350 nm

Molecule: PVLELFENLLERLLDALQKKLK [peptide 146]
- Increase in HDL Cholesterol (%) ([3]; 5 min): 31.3%
- Increase in HDL Cholesterol (%) ([3]; 15 min): 60.4%
- Increase in HDL Cholesterol (%) ([3]; 60 min): 42.9%
- Increase in HDL Cholesterol (%) ([3]; 240 min, 8 mg/kg): 90%
- Increase in HDL Cholesterol (%) ([3]; 240 min, listed as Peptide 146, 8 mg/kg): 90.2%
- Increase in HDL Cholesterol (%) ([3]; 1440 min): 71.2%
- duration of the increase in cholesterol of the HDL cholesterol fractions ([3]; 8 mg/kg, apparent at 5 min following injection): approximately 24 hr

Molecule: PVLDLFRELWEELKQKLK* (not fully specified (N-terminus, C-terminus); printed as PVLDLFRELWEELKQKLK*; also: terminal modification marked *, not defined here) [peptide 199]
- lipid to peptide molar ratio at which burying of the tryptophane residue is maximal ([2]; EPC/Chol (20:1) SUVs): about 100
- λmax ([2]; Ri 0, in buffer, 2 μM): 348 nm
- λmax ([2]; Ri 5): 344 nm
- λmax ([2]; Ri 10): 339 nm
- λmax ([2]; Ri 30): 328 nm
- λmax ([2]; Ri 100): 326 nm
- λmax ([2]; Ri 200): 325 nm
- lipid binding ([2]; small unilamellar vesicles): binds very effectively
